# Source: patent US9968582B2, “Use of a benzoate containing composition in urea cycle disorders and neurodegenerative disorders” (Rush University Medical Center, priority 2014, dated 2018)
# How the values were obtained:
# [1] = tested on: female PLP-TCR transgenic (Tg) mice; assay: Relapsing EAE in PLP-TCR transgenic mice, clinical symptoms; type: in vivo; conditions: FIG. 1B
# male C57/BL6 mice = assay: Chronic EAE (MOG35-55), clinical symptoms; type: in vivo; conditions: chronic model, FIG. 1C
# Method: C57BL/6 mice were immunized with 100 μg of MOG35-55 as described above. Mice also received two doses of pertussis toxin (150 ng/mouse) on 0 and 2 dpi.
# GTB was mixed in 0.5% methylcellulose (MC) and EAE mice were gavaged 100 μL GTB-mixed MC once daily using gavage needle. Therefore, control EAE mice received only MC as vehicle.
# While female SJL/J mice are used to induce RR-EAE, chronic form of EAE is modeled in male C57/BL6 mice upon immunization with MOG35-55. Therefore, the inventor examined the efficacy of GTB in suppressing the disease process of chronic EAE.
# [2] = tested on: blood-brain barrier and blood-spinal cord barrier; assay: Integrity of BBB and BSB, infrared dye (Alexa-680) entry into CNS of EAE mice; type: in vivo
# Source text: BBB and BSB are membranic structures that act primarily to protect the brain and the spinal cord, respectively from chemicals in the blood, while still allowing some essential molecules to enter. It is known that during active MS and EAE, BBB and BSB break down in a section of the brain and spinal cord, respectively due to widespread inflammation thereby allowing different blood molecules and toxins enter into the CNS. Therefore, the inventor investigated if GTB treatment modulated the integrity of BBB and BSB. The inventor injected an infrared dye (Alexa-680) via tail-vein and 2 h after the injection, live mice were scanned in an Odyssey infra-red scanner. As evidenced from FIG. 3A (first lane), infra-red signals were not visible on areas over the brain and the spinal cord in control HBSS-injected mice. […] In FIG. 3C, the top row relates to the frontal cortex, the middle row relates to the midbrain, and the last row relates to the cerebellum. In FIG. 3D, the first column relates to the control, the second column relates to EAE, the third column relates to EAE+GTB, the fourth column relates to EAE+Vehicle, and the y-axis is density of infrared signal.
# iNOS = assay: Expression of iNOS in spinal cord of EAE mice (RT-PCR); type: in vivo; conditions: FIG. 4D-F
# Method: (§1) Total RNA was isolated from splenic T cells and spinal cord by using the RNeasy mini kit (Qiagen, Valencia, Calif.) and from spleen and cerebellum by using the Ultraspec-II RNA reagent (Biotecx laboratories, Inc, Houston, Tex.) following manufacturer's protocol. To remove any contaminating genomic DNA, total RNA was digested with DNase. Semi-quantitative RT-PCR was carried out using a RT-PCR kit from Clonetech (Mountain View, Calif.). Briefly, 1 μg of total RNA was reverse transcribed using oligo(dT)12-18 as primer and MMLV reverse transcriptase (Clontech) in a 20 μL reaction mixture. The resulting cDNA was appropriately-diluted, and diluted cDNA was amplified using Titanium Taq DNA polymerase and following primers. Amplified products were electrophoresed on a 1.8% agarose gels and visualized by ethidium bromide staining.
# (§2) The relative expression of each gene with respect to GAPDH was measured after scanning the bands with a Fluor Chem 8800 Imaging System (Alpha Innotech, San Leandro, Calif.).
# (§3) Real-time PCR analysis was performed using the ABI-Prism7700 sequence detection system (Applied Biosystems, Foster City, Calif.). […] Data were processed by the ABI Sequence Detection System 1.6 software and analyzed by ANOVA. […]
# IL-1β = assay: Expression of IL-1β in spinal cord of EAE mice (RT-PCR); type: in vivo; conditions: FIG. 4D-F
# Method: as §1, §2, §3
# [3] = tested on: myelin basic protein (MBP); assay: Myelin gene mRNA expression in spinal cord of EAE mice: MBP; type: in vivo; conditions: FIG. 5C-E
# Method: as §1, with “The resulting cDNA was appropriately-diluted, and diluted cDNA was amplified using Titanium Taq DNA polymerase and following primers. Amplified products were electrophoresed on a 1.8% agarose gels and visualized by ethidium bromide staining.” left out
# as §2
# (§4) Real-time PCR analysis was performed using the ABI-Prism7700 sequence detection system (Applied Biosystems, Foster City, Calif.). […] Data were processed by the ABI Sequence Detection System 1.6 software and analyzed by ANOVA.
# (§5) Demyelination is the most important pathological feature in MS, which is also modeled in EAE animals. […] To confirm this finding, the inventor monitored the expression of […] myelin genes, myelin basic protein (MBP) and proteolipid protein (PLP), and observed a marked loss of mRNA expression of these genes in the spinal cord of untreated EAE mice compared to control mice (FIG. 5C-E).
# [4] = tested on: proteolipid protein (PLP); assay: Myelin gene mRNA expression in spinal cord of EAE mice: PLP; type: in vivo; conditions: FIG. 5C-E
# Method: as §1, with “The resulting cDNA was appropriately-diluted, and diluted cDNA was amplified using Titanium Taq DNA polymerase and following primers. Amplified products were electrophoresed on a 1.8% agarose gels and visualized by ethidium bromide staining.” left out
# as §2, §4, §5
# [5] = tested on: Tyrosine hydroxylase (TH); assay: MPTP mouse model of PD, Western blot of nigral TH; type: in vivo, mice; conditions: FIG. 9A-B
# Method: Six- to eight-week old C57BL/6 mice were purchased from Harlan (Indianapolis, Ind.). For acute MPTP intoxication, mice received four intraperitoneal (i.p.) injections of MPTP-HCl (18 mg/kg of free base; Sigma Chemical Co., St. Louis, Mo.) in saline at 2-h intervals. Control animals received only saline.
# GTB was mixed in 0.5% methylcellulose (MC) and from 3 h after the last injection of MPTP, mice were gavaged 100 μL GTB-mixed MC once daily using gavage needle. Therefore, control MPTP mice received only MC as vehicle.
# Immunoblot analysis for DJ-1 and TH was carried out. Briefly, cell homogenates were electrophoresed, proteins were transferred onto a nitrocellulose membrane, and bands were visualized with an Odyssey infrared scanner after immunolabeling with respective primary antibodies followed by infra-red fluorophore-tagged secondary antibody (Invitrogen).
# Tyrosine hydroxylase (TH), the key enzyme responsible for the production of dopamine, is present in dopaminergic neurons. MPTP-intoxication led to approximately 60% loss of nigral TH (FIG. 9A-B) compared with saline-injected controls.
structure (smiles),measurement,setting,value
"O=C(OCC(COC(=O)c1ccccc1)OC(=O)c1ccccc1)c1ccccc1 [GTB, glyceryl tribenzoate]",dose of maximum inhibition of EAE,[1]; GTB from 8 dpi,50 mg/kg body wt/d
same,clinical symptoms (mean clinical score),"[1]; different doses of GTB from 8 dpi, 10 μg/mouse PLP139-151",inhibitory effect of GTB on the clinical symptoms was clearly observed
same,clinical symptoms of EAE,male C57/BL6 mice,strongly inhibited the clinical symptoms
same,"entry of infra-red dye into the CNS, live mice","[2]; scan 2 h after tail-vein injection of Alexa-680, FIG. 3A",strongly inhibited the entry of infra-red dye into the CNS
same,"entry of infra-red dye into spinal cord and parts of the brain, dissected tissue","[2]; spinal cord, frontal cortex, midbrain, cerebellum, FIG. 3B-D",markedly attenuated the entry of infra-red dye
same,expression of iNOS in the spinal cord,iNOS,dramatically reduced the expression
same,expression of IL-1β in the spinal cord,IL-1β,dramatically reduced the expression
same,MBP mRNA expression in the spinal cord,[3],significant restoration of myelin gene mRNA expression
same,PLP mRNA expression in the spinal cord,[4],significant restoration of myelin gene mRNA expression
same,nigral TH,[5]; GTB 25 mg/kg body wt/d,protection was evident
same,nigral TH,[5]; oral GTB in MPTP-intoxicated mice,protected nigral TH in a dose-dependent manner
